Measured values taken from EPA's ToxRefDB 2.

Tests used:
[1] = tested on: mouse; conditions: Carcinogenicity, b6c3f1, Oral, Feed, dose end: 58 week, group: systemic
[2] = tested on: rat; conditions: Carcinogenicity, fischer, Oral, Feed, dose end: 78 week, group: systemic
[3] = tested on: mouse; conditions: Subchronic oral toxicity in rodents, swiss albino, Gavage/Intubation, dose end: 14 day, group: systemic
[4] = tested on: rat; conditions: Multigenerational reproductive toxicity study, sprague dawley, Oral, Feed, dose end: 2 generation
[5] = tested on: mouse; conditions: Combined chronic toxicity/carcinogenicity, other, Oral, Feed, dose end: 24 month, group: systemic
[6] = tested on: rat; conditions: Prenatal developmental toxicity study, wistar, Oral, Gavage/Intubation, dose end: 16 GD
[7] = tested on: mouse; conditions: Carcinogenicity, other, Oral, Feed, dose end: 24 month, group: systemic
[8] = tested on: mouse; conditions: Subchronic oral toxicity in rodents, cd1, Feed, dose end: 13 week, group: systemic, systemic / hematology / hemoglobin (hgb) / hemoglobin (hgb) + systemic / hematology / mean corpuscular hemoglobin concentration (mchc) / …
[9] = tested on: dog; conditions: Chronic toxicity, beagle, Oral, Feed, dose end: 54 week, group: systemic
[10] = tested on: rat; conditions: Combined chronic toxicity/carcinogenicity, sprague dawley, Oral, Feed, dose end: 24 month, group: systemic
[11] = tested on: rat; conditions: Subchronic oral toxicity in rodents, sprague dawley, Feed, dose end: 90 day
[12] = tested on: rat; conditions: Combined chronic toxicity/carcinogenicity; sprague dawley; Oral; Feed; dose end: 104 week; group: systemic; systemic / in life observation / body weight / body weight gain + systemic / pathology microscopic / blood vessel / aneurysm + systemic / …
[13] = tested on: rat; conditions: Carcinogenicity; other; Oral; Feed; dose end: 82 week; group: systemic; systemic / in life observation / clinical signs / fur (altered appearance) + systemic / in life observation / clinical signs / hunched …
[14] = systemic / pathology microscopic / liver / hyperplasia
[15] = systemic / pathology microscopic / liver / hyperplasia + systemic / pathology microscopic / liver / adenoma + systemic / pathology …
[16] = systemic / pathology microscopic / liver / neoplastic nodule
[17] = systemic / hematology / sulphemoglobin / sulphemoglobin
[18] = systemic / hematology / sulphemoglobin / sulphemoglobin + systemic / hematology / heinz body / heinz body + systemic / hematology / …
[19] = group: offspring, systemic / in life observation / body weight / offspring (pup) weight
[20] = group: parental, systemic / hematology / lymphocyte / lymphocyte + systemic / hematology / platelet / platelet + systemic / organ weight / spleen / nos + …
[21] = systemic / in life observation / mortality / mortality
[22] = systemic / in life observation / mortality / mortality + systemic / in life observation / body weight / body weight gain
[23] = group: developmental, developmental / developmental malformation / bone / fragmented + systemic / in life observation / clinical signs / reduced body size
[24] = group: maternal, systemic / in life observation / body weight / body weight gain + systemic / in life observation / clinical signs / convulsions + systemic…
[25] = systemic / pathology gross / urinary bladder / thickened
[26] = systemic / in life observation / clinical signs / [other] + systemic / in life observation / body weight / body weight + systemic / in life …
[27] = systemic / in life observation / clinical signs / [other] + systemic / in life observation / body weight / body weight gain + systemic / in …
[28] = systemic / in life observation / body weight / body weight gain + systemic / pathology gross / kidney / enlarged + systemic / pathology …
[29] = group: cholinesterase, cholinesterase / cholinesterase / cholinesterase / plasma cholinesterase (che)
[30] = group: systemic, systemic / hematology / mean corpuscular hemoglobin concentration (mchc) / mean corpuscular hemoglobin concentration (mchc) + systemic / …
[31] = group: systemic, systemic / pathology microscopic / kidney / pigmentation

O=Nc1ccc(Nc2ccccc2)cc1 [4-Nitrosodiphenylamine]
LOAEL [1, 14]: 638 mg/kg/day | NOAEL [1, 14]: < 638 mg/kg/day | LEL [1, 15]: 638 mg/kg/day | NEL [1, 15]: < 638 mg/kg/day | LOAEL ([2]; systemic / in life observation / body weight / body weight): 250 mg/kg/day | NOAEL ([2]; systemic / in life observation / body weight / body weight + systemic / pathology microscopic / liver / neoplastic nodule + systemic / …): 125 mg/kg/day | LEL [2, 16]: 125 mg/kg/day | NEL [2, 16]: < 125 mg/kg/day

O=C(NC(=O)c1c(F)cccc1F)Nc1ccc(Cl)cc1 [Diflubenzuron]
LEL [3, 17]: 200 mg/kg/day | LOAEL [3, 17]: 200 mg/kg/day | NEL [3, 18]: 40 mg/kg/day | NOAEL [3, 18]: 40 mg/kg/day | LEL [4, 19]: 3800 mg/kg/day | LOAEL [4, 19]: 3800 mg/kg/day | NEL [4, 19]: 360 mg/kg/day | NOAEL [4, 19]: 360 mg/kg/day | LEL [4, 20]: 36 mg/kg/day | LOAEL [4, 20]: 36 mg/kg/day | NEL [4, 20]: < 36 mg/kg/day | NOAEL [4, 20]: < 36 mg/kg/day

O=S1OCC2C(CO1)C1(Cl)C(Cl)=C(Cl)C2(Cl)C1(Cl)Cl (centres undefined) [Endosulfan]
NEL [5, 21]: 0.9 mg/kg/day | LEL [5, 22]: 2.7 mg/kg/day | LOAEL [5, 22]: > 2.7 mg/kg/day | NOAEL [5, 22]: ≥ 2.7 mg/kg/day | LEL [6, 23]: 6 mg/kg/day | LOAEL [6, 23]: 6 mg/kg/day | NEL [6, 23]: 2 mg/kg/day | NOAEL [6, 23]: 2 mg/kg/day | LEL [6, 24]: 6 mg/kg/day | LOAEL [6, 24]: 6 mg/kg/day | NEL [6, 24]: 2 mg/kg/day | NOAEL [6, 24]: 2 mg/kg/day | LOAEL [7, 21]: 2.6 mg/kg/day | NOAEL ([7]; systemic / in life observation / mortality / mortality + systemic / pathology gross / urinary bladder / thickened): 0.9 mg/kg/day | LEL [7, 25]: 0.3 mg/kg/day | NEL [7, 25]: < 0.3 mg/kg/day | LEL [8]: 0.27 mg/kg/day | LOAEL [8]: 0.27 mg/kg/day | NEL [8]: < 0.27 mg/kg/day | NOAEL [8]: < 0.27 mg/kg/day | NEL [9, 26]: 0.25 mg/kg/day | NOAEL [9, 26]: 0.25 mg/kg/day | LEL [9, 27]: 0.75 mg/kg/day | LOAEL [9, 27]: 0.75 mg/kg/day | NEL ([10]; systemic / in life observation / body weight / body weight gain + systemic / pathology gross / kidney / enlarged): 0.75 mg/kg/day | LEL [10, 28]: 3.75 mg/kg/day | LOAEL [10, 28]: > 3.75 mg/kg/day | NOAEL [10, 28]: ≥ 3.75 mg/kg/day | LEL [11, 29]: 18 mg/kg/day | LOAEL [11, 29]: > 18 mg/kg/day | NEL [11, 29]: 3 mg/kg/day | NOAEL [11, 29]: ≥ 18 mg/kg/day | LOAEL [11, 30]: 1.5 mg/kg/day | NOAEL [11, 30]: 0.5 mg/kg/day | LEL [11, 31]: 0.5 mg/kg/day | NEL [11, 31]: < 0.5 mg/kg/day | LEL [12]: 2.9 mg/kg/day | LOAEL [12]: 2.9 mg/kg/day | NEL [12]: 0.6 mg/kg/day | NOAEL [12]: 0.6 mg/kg/day | LEL [13]: 11.2 mg/kg/day | LOAEL [13]: > 22.2 mg/kg/day | NEL [13]: < 11.2 mg/kg/day | NOAEL [13]: ≥ 22.2 mg/kg/day
